According to patent US20230115350A1 (Cedilla Therapeutics, Inc., priority 2021, published 2023):

Legend:
[1] = biological target: TEAD1 protein (YAP Binding Domain) (Homo sapiens, UniProt P28347); test: TEAD1 lipid pocket compound displacement assay (TR-FRET, Cy5-probe); conditions: 60 minutes incubation at room temperature; TR-FRET 665 nm/620 nm; read-out: CDA IC50
Method: Compound Displacement Assay.
A TEAD1 lipid pocket displacement assay was carried out according to the following protocol. Purified His-tagged TEAD1 protein (YAP Binding Domain) was pre-mixed with a Cy5-probe (Cy5-conjugated to a small molecule that binds in the TEAD1 lipid pocket) and Terbium-labeled anti-His antibody (Cisbio Cat 61HI2TLB). The binding of the Cy5-probe to anti-His-Tb/His-tag TEAD1 complex yielded a TR-FRET signal. […] After 60 minutes incubation at room temperature of compounds with the His-TEAD1/anti-His-Tb/Cy5-probe complex, the plate was read on a plate reader (BMG ClarioStar Cat 430-1300) using TR-FRET mode with wavelengths of 665 nm/620 nm. The potency of compounds as TEAD1 lipid pocket binders was determined by IC50 value generated using a non-linear 4 parameter curve fit.

NCI-H226 = test: 72H TEAD Proliferation Assay (Cell Titer-Glo 2.0); type: cell-based; conditions: Homo sapiens, NCI-H226, 72 h, CTG 2.0, cell line not given
Method: The effect of TEAD inhibition on cell proliferation was assayed using Cell Titer Glo (CTG) 2.0 to measure response in mesothelioma cell lines NCI-H226 (ATCC, #CRL-5826) and NCI-H28 (ATCC, #CRL-5820).
The 72H TEAD Proliferation assay utilizes Cell Titer-Glo 2.0 (Promega, #G9243) to measure the proliferation of cells in the presence or absence of compound. Cell Titer-Glo 2.0 determines the amount of viable cells by quantifying ATP (an indication of metabolically active cells). It utilizes the conversion of Luciferin to Oxyluciferin and a luminescent signal with the use of ATP to report the quantity of viable cells in culture. Within cells that are continually growing, ATP is being synthesized to meet their metabolic demands, meanwhile the opposite is true for cells that are dying or slowing down their proliferation and either no longer using ATP or are using less, respectively. The NF2-deficient NCI-H226 has been genetically validated as a cell line that is sensitive to TEAD inhibition. The NF2-wild type NCI-H28 has been genetically validated as a cell line that is not sensitive to TEAD inhibition and grows independently of TEAD activity.
Compounds were screened against the responsive NCI-H226 cell line to assess the compounds' ability to inhibit TEAD and cell growth. Compounds were also screened against the non-responsive NCI-H28 cell line to ascertain whether the inhibition of cell growth was due to inhibition of the target TEAD or whether the inhibition was due to off-target cytotoxicity.
1) Assay ready plates (ARPs) were prepared by Echo acoustic liquid handler. For each compound, duplicate of 10-point half-log dilution series were dispensed in a 384-well microplate (Corning 3571).
5) NCI-H226 or NCI-H28 cells were harvested from culture in Assay Medium 1 and the multidrop Combi reagent dispenser was used to seed cells at 500 cells per 50 ul in each well of the ARPs and one Corning 3571 plate without compounds for Time 0 (TO) readout.
6) The TO plate was incubated for 2 hours at 37° C. with 5% CO2 to allow cells to settle, then the CTG Assay was performed.
7) All ARPs were incubated for 72 hours at 37° C. with 5% CO2, then the CTG Assay was performed for Time 72H (T72) readout.
8) CTG Assay: Bravo liquid handler (Agilent) was used to add 25 ul of CTG 2.0 to all columns of the plate except for Column 24, which was used to subtract out the background. After CTG addition, plates were placed on shaker at 800 RPM for 15 minutes at room temperature and kept in the dark. Luminescence was measured using EnVision multilabel plate reader with ultra-sensitive detection module.
9) Data Analysis: First background luminescence (no CTG wells) was subtracted from luminescence reading of all wells, then TO luminescence was subtracted from T72 luminescence. To compare anti-proliferative effect of compounds, GI50 was obtained by fitting dose response curves with nonlinear regression curve fit.

TEAD1 protein (YAP Binding Domain), sequence (P28347 209-426 limits assumed): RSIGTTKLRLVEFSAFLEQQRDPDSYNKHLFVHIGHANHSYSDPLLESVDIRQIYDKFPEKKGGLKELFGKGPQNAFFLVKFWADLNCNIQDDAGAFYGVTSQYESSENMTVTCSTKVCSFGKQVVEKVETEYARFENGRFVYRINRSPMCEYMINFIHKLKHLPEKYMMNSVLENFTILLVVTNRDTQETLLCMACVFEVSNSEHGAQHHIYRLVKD

SMILES | IC50 [1] [nM] | GI50 (NCI-H226) [nM]
C=CC(=O)Nc1ccc(OCc2ccc(Cl)nc2)c(F)c1 [Compound 72, N-(4-((6-chloropyridin-3-yl)methoxy)-3-fluorophenyl)acrylamide] | 500 to 2000 | > 3000
C=CC(=O)Nc1ccc(OCc2cccc(F)c2Cl)c(F)c1 [Compound 83, N-(4-((2-chloro-3-fluorobenzyl)oxy)-3-fluorophenyl)acrylamide] | ≤ 250 | 250 to 1000
C=CC(=O)Nc1cc2nc(CC3CC3C)oc2cc1F (centres unmarked) [Compound 145, N-(6-fluoro-2-((2-methylcyclopropyl)methyl)benzo[d]oxazol-5-yl)acrylamide] | 250 to 500 | ≤ 250
C=CC(=O)Nc1ccc(C2COc3ccccc3O2)c(F)c1 (centres unmarked) [Compound 122, N-(4-(2,3-dihydrobenzo[b][1,4]dioxin-2-yl)-3-fluorophenyl)acrylamide] | ≤ 250 | > 3000
C=CC(=O)Nc1ccc(NCc2cccc(F)c2)c(F)c1 [Compound 101, N-(3-fluoro-4-((3-fluorobenzyl)amino)phenyl)acrylamide] | 500 to 2000 | 1000 to 3000
C=CC(=O)Nc1ccc(OCc2cc(C(F)(F)F)ccn2)c(F)c1 [Compound 117, N-(3-fluoro-4-((4-(trifluoromethyl)pyridin-2-yl)methoxy)phenyl)acrylamide] | 250 to 500 | 250 to 1000
C=CC(=O)Nc1ccc(Oc2cccc(C(C)(C)C)c2)c(F)c1 [Compound 110, N-(4-(3-(tert-butyl)phenoxy)-3-fluorophenyl)acrylamide] | 250 to 500 | 1000 to 3000
C=CC(=O)Nc1cnc(OCc2cccc(F)c2)c(F)c1 [Compound 129, N-(5-fluoro-6-((3-fluorobenzyl)oxy)pyridin-3-yl)acrylamide] | 250 to 500 | > 3000
C=CC(=O)Nc1ccc(OCC2CCC(F)(F)CC2)c(C#N)c1 [Compound 50, N-(3-cyano-4-((4,4-difluorocyclohexyl)methoxy)phenyl)acrylamide] | ≤ 250 | ≤ 250
C=CC(=O)Nc1ccc(OCc2ccc(F)cc2Cl)c(F)c1 [Compound 84, N-(4-((2-chloro-4-fluorobenzyl)oxy)-3-fluorophenyl)acrylamide] | 500 to 2000 | 1000 to 3000
C=CC(=O)Nc1cc2nc(CCC(F)(F)F)oc2cc1F [Compound 144, N-(6-fluoro-2-(3,3,3-trifluoropropyl)benzo[d]oxazol-5-yl)acrylamide] | > 2000 | 250 to 1000
C=CC(=O)Nc1ccc(OC(C)c2cccc(C(F)(F)F)c2)c(F)c1 (centres unmarked) [Compound 105, N-(3-fluoro-4-(1-(3-(trifluoromethyl)phenyl)ethoxy)phenyl)acrylamide] | ≤ 250 | 250 to 1000
C=CC(=O)Nc1cc2nc(Cc3ccc(F)cc3)oc2cc1F [Compound 142, N-(6-fluoro-2-(4-fluorobenzyl)benzo[d]oxazol-5-yl)acrylamide] | 500 to 2000 | 1000 to 3000
C=CC(=O)Nc1cc2nc(Cc3ccccc3)oc2cc1F [Compound 137, N-(2-benzyl-6-fluorobenzo[d]oxazol-5-yl)acrylamide] | 250 to 500 | > 3000
C=C(F)C(=O)Nc1ccc(OCC2CCC(F)(F)CC2)c(F)c1 [Compound 149, N-(4-((4,4-difluorocyclohexyl)methoxy)-3-fluorophenyl)-2-fluoroacrylamide] | 250 to 500 | ≤ 250
C=CC(=O)Nc1ccc(OCC2CCC(F)(F)CC2)c2ccnn12 [Compound 23, N-(4-((4,4-difluorocyclohexyl)methoxy)pyrazolo[1,5-a]pyridin-7-yl)acrylamide] | ≤ 250 | 1000 to 3000
C=CC(=O)Nc1cc2nc(CCC(F)(F)C(F)(F)F)oc2cc1F [Compound 140, N-(6-fluoro-2-(3,3,4,4,4-pentafluorobutyl)benzo[d]oxazol-5-yl)acrylamide] | ≤ 250 | ≤ 250
C=CC(=O)Nc1ccc(Oc2ccc(C)cc2)c(F)c1 [Compound 114, N-(3-fluoro-4-(p-tolyloxy)phenyl)acrylamide] | ≤ 250 | > 3000

SMILES | IC50 [1] [nM] | GI50 (NCI-H226) [nM]
C=CC(=O)Nc1ccc(OCc2cncc(C(F)(F)F)c2)cc1C#N [Compound 42, N-(2-cyano-4-((5-(trifluoromethyl)pyridin-3-yl)methoxy)phenyl)acrylamide] | > 2000 | 250 to 1000
C=CC(=O)Nc1ccc2c(c1)OC(c1cccc(C(F)(F)F)c1)O2 (centres unmarked) [Compound 146, N-(2-(3-(trifluoromethyl)phenyl)benzo[d][1,3]dioxol-5-yl)acrylamide] | ≤ 250 | ≤ 250
C=CC(=O)Nc1ccc(OCc2cccc(F)c2)cc1F [Compound 45, N-(2-fluoro-4-((3-fluorobenzyl)oxy)phenyl)acrylamide] | – | > 3000
C#Cc1cccc(COc2ccc(NC(=O)C=C)cc2F)c1 [Compound 25, N-(4-((3-ethynylbenzyl)oxy)-3-fluorophenyl)acrylamide] | 250 to 500 | –
C=CC(=O)Nc1ccc2c(c1)OCC(c1cccc(F)c1)O2 (centres unmarked) [Compound 8, N-(2-(3-fluorophenyl)-2,3-dihydrobenzo[b][1,4]dioxin-6-yl)acrylamide] | 250 to 500 | –
C=CC(=O)Nc1ccc(C(=O)Nc2cccc(F)c2)c(F)c1 [Compound 118, 4-acrylamido-2-fluoro-N-(3-fluorophenyl)benzamide] | > 2000 | –
C=CC(=O)Nc1ccc(NC(=O)C2CCC(F)(F)CC2)c(F)c1 [Compound 32, N-(4-acrylamido-2-fluorophenyl)-4,4-difluorocyclohexanecarboxamide] | ≤ 250 | –
C=CC(=O)Nc1ccc(OCc2cnc(C)s2)c(F)c1 [Compound 64, N-(3-fluoro-4-((2-methylthiazol-5-yl)methoxy)phenyl)acrylamide] | > 2000 | –
C=CC(=O)Nc1cc2nc(CCCC(F)(F)F)oc2cc1F [Compound 133, N-(6-fluoro-2-(4,4,4-trifluorobutyl)benzo[d]oxazol-5-yl)acrylamide] | – | ≤ 250
C=CC(=O)Nc1ccc(OCc2ccc(Br)nc2)c(F)c1 [Compound 68, N-(4-((6-bromopyridin-3-yl)methoxy)-3-fluorophenyl)acrylamide] | 500 to 2000 | –
C=CC(=O)Nc1ccc(OCc2cccc(F)c2)cc1 [Compound 44, N-(4-((3-fluorobenzyl)oxy)phenyl)acrylamide] | > 2000 | –
O=C(O)c1ccc(OCC2CCC(F)(F)CC2)c(F)c1 [Compound 35, 4-((4,4-difluorocyclohexyl)methoxy)-3-fluorobenzoic acid] | 250 to 500 | –
C=CC(=O)Nc1ccc(Oc2ccc(C3CCCCC3)cc2)c(F)c1 [Compound 102, N-(4-(4-cyclohexylphenoxy)-3-fluorophenyl)acrylamide] | ≤ 250 | –
C=CC(=O)Nc1ccc(OCc2oc(=O)oc2C)c(F)c1 [Compound 65, N-(3-fluoro-4-((5-methyl-2-oxo-1,3-dioxol-4-yl)methoxy)phenyl)acrylamide] | > 2000 | –
O=C(O)c1ccc(F)c(OCC2CCC(F)(F)CC2)c1 [Compound 36, 3-((4,4-difluorocyclohexyl)methoxy)-4-fluorobenzoic acid] | 250 to 500 | –
C=CC(=O)Nc1ccc(OCc2cccc(Cl)c2)c(F)c1 [Compound 90, N-(4-((3-chlorobenzyl)oxy)-3-fluorophenyl)acrylamide] | ≤ 250 | –
C=CC(=O)Nc1ccc(OCc2cccc(C)c2)c(F)c1 [Compound 93, N-(3-fluoro-4-((3-methylbenzyl)oxy)phenyl)acrylamide] | ≤ 250 | –
C=CC(=O)Nc1ccc(OCc2cccc(F)c2)cc1CC1CC1 [Compound 16, N-(2-(cyclopropylmethyl)-4-((3-fluorobenzyl)oxy)phenyl)acrylamide] | > 2000 | –
